Laboratory results: PubChem BioAssay (NCI)
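Assay format: 96-well plates, 48-hour exposure. GI50: concentration for 50% inhibition of growth. TGI is the concentration that stops growth completely.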

How the values were obtained:
Experiment in all cases: DTP human tumour cell line panel, 48 h
A498 renal = tested on: A498 renal
ACHN renal = tested on: ACHN renal
CAKI-1 renal = tested on: CAKI-1 renal
HCC-2998 colon = tested on: HCC-2998 colon
M14 melanoma = tested on: M14 melanoma
NCI-H23 lung = tested on: NCI-H23 lung
RPMI-8226 leukemia = tested on: RPMI-8226 leukemia
SF-539 CNS = tested on: SF-539 CNS
SK-MEL-28 melanoma = tested on: SK-MEL-28 melanoma
SK-MEL-5 melanoma = tested on: SK-MEL-5 melanoma

SMILES	GI50 (A498 renal) [µM]	TGI (A498 renal) [µM]	GI50 (ACHN renal) [µM]	TGI (ACHN renal) [µM]	GI50 (CAKI-1 renal) [µM]	TGI (CAKI-1 renal) [µM]	GI50 (HCC-2998 colon) [µM]	TGI (HCC-2998 colon) [µM]	GI50 (M14 melanoma) [µM]	TGI (M14 melanoma) [µM]	GI50 (NCI-H23 lung) [µM]	TGI (NCI-H23 lung) [µM]	GI50 (RPMI-8226 leukemia) [µM]	TGI (RPMI-8226 leukemia) [µM]	GI50 (SF-539 CNS) [µM]	GI50 (SK-MEL-28 melanoma) [µM]	TGI (SK-MEL-28 melanoma) [µM]	GI50 (SK-MEL-5 melanoma) [µM]	TGI (SK-MEL-5 melanoma) [µM]	TGI (SF-539 CNS) [µM]
COc1ccc(C(O)c2cc3c(N)c(C(=O)Nc4cccc(Cl)c4)sc3nc2C)cc1 (stereo not given)	0.659	2.38	2.3	> 42.4	1.27	> 39.4	1.76	> 35.9	0.731	> 36.5	1.82	> 50.1	3.21	> 100	0.858	1.23	55	1.17	> 32	–
C[C@]12CC[C@H](O)CC1=CC[C@@H]1C2CC[C@]2(C)Nc3c(cnn3-c3ccccc3)CC12 (stereo not given in full)	–	29.7	–	29.7	–	24.8	–	22.3	–	30.9	–	63	–	1.49	–	–	18.7	–	12.4	2.99
Cc1cc(O)c(C2=NN(c3ccc(S(N)(=O)=O)cc3)C(c3ccc(Cl)cc3)C2)c(C)c1Cl (stereo not given)	6.97	19.3	3.7	14.4	4.38	18.2	6.48	19.1	2.62	10.4	5.82	19.9	3.99	17.8	12.3	11.7	23.9	9.59	21.4	24.7
COc1cc(NC(=O)CCSc2nc3ccc(C)cc3c(=O)n2Cc2ccccc2)cc(OC)c1OC	15.8	60	3.72	34.9	> 100	> 100	> 100	> 100	24.4	> 100	26.6	> 100	> 100	> 100	2.5	6.3	> 100	32.4	> 100	7.26
c1ccc2c(-c3nc(-c4c[nH]c5ccncc45)cs3)c[nH]c2c1	10	22.1	1.72	3.36	1.98	5.74	1.87	3.42	1.7	3.46	1.85	5	1.25	3.04	1.79	1.84	3.32	1.6	2.99	3.29
Cc1cc(N(CCC#N)CCC#N)ccc1N=Nc1ccc(Br)cc1	–	30	–	> 42.2	–	> 51.4	–	> 79.3	–	> 66	–	> 51.3	–	> 100	–	–	> 100	–	27.8	> 51.9
O=C(Nc1ccc(-c2nc(-c3cccc(OCCN4CCOCC4)c3)c(-c3ccnc(Br)c3)[nH]2)cc1)c1ccccc1	1.49	3.96	3.55	> 100	1.84	5.27	2.76	> 100	1.8	4.36	2.47	8.78	0.407	2.47	1.23	1.5	3.94	1.77	3.21	3.71
C1=C2CCCC3=Cc4ccccc4OC23Oc2ccccc21	2.76	13.1	5.06	> 100	3.71	> 100	10.3	60.7	3.37	> 100	6.2	> 100	3.38	15	1.92	5.22	> 100	3.37	24.2	5.01
O=C(Oc1ccc(CO[N+](=O)[O-])cc1)c1ccccc1	1.07	2.26	0.113	0.236	0.163	0.308	0.201	0.447	0.115	0.271	0.351	1.43	0.0912	0.33	0.153	0.171	0.332	0.474	1.73	0.287
O=C1CCC(N2C(=O)c3ccccc3C2=O)C(=O)N1 (stereo not given)	> 100	> 100	–	> 100	–	> 100	–	> 100	–	> 100	–	> 100	–	> 100	> 100	> 100	> 100	–	> 100	> 100
Cc1ccc(S(=O)(=O)c2ccccc2[N+](=O)[O-])cc1	–	> 100	–	> 100	–	> 100	–	> 100	–	> 100	–	> 100	–	> 100	–	–	> 100	–	> 100	> 100
CC(C)CCCC(C)[C@H]1CCC2[C@@H]3CCC4Nc5c(cnn5-c5ccccc5)C[C@]4(C)C3CC[C@@]21C (stereo not given in full)	–	> 100	–	> 100	–	78.4	–	> 100	–	> 100	–	> 100	–	> 100	–	–	–	–	> 100	> 100
Cc1nc(Nc2cccnc2)sc1C(=O)/C=C/c1ccc(Cl)cc1	49.5	> 100	–	–	3.15	15.1	3.06	10.5	3.13	19.5	3.43	40.8	2.5	9.03	2.03	3.04	14.7	4.59	35.5	5.26
Cc1ccc(S(=O)(=O)c2nc(-c3ccccc3)oc2S(C)=O)cc1 (stereo not given)	4.23	13.6	1.52	2.88	1.5	2.84	16.4	30.4	1.59	3.25	1.91	3.97	1.4	4.13	1.55	1.95	3.5	–	–	3.01
C#Cc1c(C)c(/C=C/C(C)=C/C(=O)OC)n(C)c1C	–	> 100	–	> 100	–	> 100	–	> 100	–	> 100	–	> 100	–	> 100	–	–	–	–	–	> 100
